In US12708659B2, “Polyphenolic insulin” (KIMBALL WESTWARD LLC, priority 2020, dated 2026):

Legend:
[1] = Preservation of quercetin-containing insulin hexameric complexes by small phenolic compounds; format: physicochemical; details: as small phenolic compound
insulin = insulin (Homo sapiens, UniProt P01308); details: does not require zinc ions; read-out: dissociation constant Kd of dimerization; cited from earlier work
Chain of insulin (P01308 25-54 limits assumed): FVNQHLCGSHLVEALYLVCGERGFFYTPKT
Chain of insulin (P01308 90-110 limits assumed): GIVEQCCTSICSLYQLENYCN

Molecule	preservation of insulin hexameric complexes that contained quercetin [1]	Kd (insulin) [µM]
O=C(O)c1ccc(O)cc1 [4-hydroxybenzoic acid]	better preserve insulin hexameric complexes	–
O=C([O-])c1ccccc1.[Na+] [sodium benzoate]	better preserve insulin hexameric complexes	–
insulin: anabolic hormone of A-chain and B-chain linked by disulfide bonds	–	~10
